US10881656B2, “HIF inhibitors and use thereof” (The General Hospital Corporation, priority 2008, dated 2021)

How the values were obtained:
HIF = settings: published; cited from earlier work
[1] = biological target: T1, IRP2 binding to Ferritin-L IRE (Homo sapiens, UniProt P48200); test: Electrophoretic mobility shift assay, Ferritin L IRE probe; settings: 786-O lysates, EMSA
T1 construct: when expressed in endogenous levels; endogenous in cells; host or cells: 786-O
Protocol: EMSAs were performed as described previously (Fillebeen et al., 2003). Briefly, 50 μg lysate from 786-O cells treated with medium only, DMSO, or compounds were incubated with 25,000 cpm wild-type or mutant radiolabeled HIF-2a IRE probe for 20 minutes at room temperature before loading onto non-denaturing acrylamide gels. Supershifts were performed identically, save that 0.2 μg control, IRP1 or IRP2 antibodies were also added. Total protein content was estimated by Bradford Assay (BioRad, 500-0006), and even loading for all experiments was confirmed by Western blot for B-Actin.
Inventors discovered that compound 76 increased the residual amount of IRP1 bound to the HIF-2a IRE in hypoxia, although not to the same extent as that observed in normoxic cells. […] Lastly, to further investigate the involvement of IRP2 in HIF-2a IRE, the inventors compared side by side IRP2 binding to HIF-2a and Ferritin-L IRE in 786-O cells, in conditions of normoxia or hypoxia and after treatment with compound 76 or DFO (FIG. 7E). While IRP2 binding was clearly detected on Ferritin IRE, the inventors were not able to detect measurable IRP2 binding on HIF-2a IRE.

[2] = test system: iron (Fe-(EDHB)3 complex); test: In vitro iron competition assay; settings: 0-200 micromolars, absorbance at 500 nm
Protocol: This assay was performed similarly to that described previously (Wang et al., 2002). Briefly, displacement of iron from ethyl-3,4-dihydroxybenzoate (EDHB) complex was measured as a decrease in absorbance at 500 nm. Ferric iron, prepared as a 5 mM stock solution of FeC13 in 100 mM sodium citrate, was diluted to 25 μM in the presence of 750 μM EDHB. 1 ml aliquots of this solution were then mixed with 0, 25, 50, 100 or 200 micromolars of compounds 40, 41, 76, and 77 as well as EDTA and DFO for controls. […] The self absorbance of compound 41 in a matched solution lacking Fe-(EDHB)3 was subtracted from the A500 value obtained in the presence of the Fe-(EDHB)3 complex.
The inventors next directly tested whether the compounds bind iron by performing a competition assay in which the displacement of iron from ethyl-3,4-dihydroxybenzoate (EDHB), a weakly chelating ester, was measured as a decrease in absorbance at 500 nm. […] In addition, the inventors utilized the Connectivity Map to look for similarities between the induced gene expression signatures of low and high dose DFO and compound treated cells (Lamb et al., 2006). Using this bioinformatic approach, the inventors discovered no significant similarity between the gene expression profile of the compounds and low (chelating) DFO dose, while there was a negative correlation between compound effect and high (HIF stabilizing) DFO dose (see FIG. 13).

[3] = test system: HIF-2a 5′-UTR Iron-Responsive Element (IRE); test: Luciferase reporters with HIF-2a 5′-UTR / IRE in 786-O cells; type: cell-based, human; settings: 10 μM, normoxia and hypoxia
NFkB = test: TransAM NFkB ELISA; type: cell-based, human; settings: 786-O cells, 5uM, 24 hours
Protocol: Experiments were performed in triplicate. Error bars represent Standard Error of the Mean (SEM).

[4] = test system: HIF-2a (HRE-luciferase, 7H4 cells); test: HRE-luciferase reporter assay in 786-O derived 7H4 cells; type: cell-based, human; settings: 786-O cells, 24 hours
Protocol: The screen for small molecule inhibitors was performed in the Institute for Chemical and Cellular biology, Harvard Medical School. 7SV or 7H4 cells were plated onto 384-well plates. The next day compounds were added robotically to the medium, to a final concentration of approximately 10 μM. 24 hours later, media was aspirated and Passive Lysis Buffer (Promega) and Luciferase Assay Reagent II (Promega) were added. Luciferase activity was measured with an Analyst plate reader (LJL Biosystems). All experiments were performed in duplicate and the identity of lead compounds was confirmed by mass spectroscopy
Luciferase assays were performed using the Promega's Dual-luciferase Assay Reporter System (Promega, E1910) according to the manufacturer's instructions. Counts obtained from transient transfections were normalized for co-transfected Renilla luciferase. Stable clones were normalized to medium only treated wells.
Functionally validated HRE and control SV40 luciferase reporter constructs were stably introduced into VHL-deficient 786-O cells to generate 7H4 and 7SV lines, respectively (see FIG. 8A). These lines were used to screen five commercial small molecule libraries (NCI Diversity Set, Chembridge, Maybridge, CEREP and Peakdale) and the ICCB Diversity-Oriented Synthesis (DOS) Diversity Set 2 (DDS2) and serine-derived peptidomimetic (SDP1) collections, totaling 58,000 compounds.
786-O cells were untreated (M, for medium only), mock-treated (D, for DMSO) or treated with compounds for two days before assaying for normalized luciferase activity. The resulting dose response curves are shown along with the compound structures in FIGS. 1A-1H).
To validate the connectivity map-derived prediction that PGJ2 is involved in HIF signaling, the inventors treated HRE-luciferase expressing 786-O cells (7H4) and SV40-luciferase expressing control cells (7SV) with increasing doses of PGJ2.

T1 sequence (P48200 whole entry): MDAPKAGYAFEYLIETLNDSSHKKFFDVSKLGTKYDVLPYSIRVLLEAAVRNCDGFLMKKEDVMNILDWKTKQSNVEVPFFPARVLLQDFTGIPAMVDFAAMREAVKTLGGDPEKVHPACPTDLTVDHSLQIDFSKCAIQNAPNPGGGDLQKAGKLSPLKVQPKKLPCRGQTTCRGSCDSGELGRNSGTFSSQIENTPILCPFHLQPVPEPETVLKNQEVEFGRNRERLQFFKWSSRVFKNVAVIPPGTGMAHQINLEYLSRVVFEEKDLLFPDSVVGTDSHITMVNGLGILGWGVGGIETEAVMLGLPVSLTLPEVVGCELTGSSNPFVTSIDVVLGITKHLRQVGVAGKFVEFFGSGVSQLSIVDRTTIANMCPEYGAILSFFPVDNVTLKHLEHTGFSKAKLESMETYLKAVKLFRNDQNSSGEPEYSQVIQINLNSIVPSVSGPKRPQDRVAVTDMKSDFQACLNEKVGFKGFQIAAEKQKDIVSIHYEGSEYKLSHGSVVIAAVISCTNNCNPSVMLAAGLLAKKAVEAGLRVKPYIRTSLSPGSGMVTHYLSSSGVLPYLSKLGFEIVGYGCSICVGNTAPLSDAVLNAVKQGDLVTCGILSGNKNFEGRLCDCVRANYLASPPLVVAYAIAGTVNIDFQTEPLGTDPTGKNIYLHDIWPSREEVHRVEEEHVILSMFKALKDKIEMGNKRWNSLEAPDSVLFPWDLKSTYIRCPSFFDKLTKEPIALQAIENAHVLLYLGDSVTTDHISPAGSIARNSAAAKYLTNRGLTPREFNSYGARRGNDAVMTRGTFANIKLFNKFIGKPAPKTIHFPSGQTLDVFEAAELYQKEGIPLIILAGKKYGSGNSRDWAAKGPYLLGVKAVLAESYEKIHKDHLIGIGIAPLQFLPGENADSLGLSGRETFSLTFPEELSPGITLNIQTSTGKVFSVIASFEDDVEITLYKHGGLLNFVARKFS

| SMILES | Biological Activities (HIF) | Mechanism of HIF inhibtion (HIF) | also measured |
| --- | --- | --- | --- |
| COc1cc([C@@H]2c3cc4c(cc3[C@@H](Nc3ccc([N+](=O)[O-])cc3)[C@H]3COC(=O)[C@H]23)OCO4)cc(OC)c1O [GL331] | Inhibits HUVEC | Protein levels | – |
| COc1cc2c(cc1O)CC[C@@H]1[C@@H]2CC[C@]2(C)[C@@H](O)CC[C@@H]12 [Compound 2-ME2] | Inhibits HUVEC | Post-transcriptional | – |
| CC(C)(c1ccc(O)cc1)c1ccc(O)cc1 [Bisphenol] | – | HIF degradation | – |
| CCC(C)SSc1ncc[nH]1 (stereo not drawn) [PX-12] | Tumor suppression | – | – |
| OCc1ccc(-c2nn(Cc3ccccc3)c3ccccc23)o1 [YC-1] | VEGF decrease/tumor | HIF protein levels | – |
| COc1ccc2cc3[n+](cc2c1OC)CCc1cc2c(cc1-3)OCO2 [Berberine] | – | HIF degradation | – |
| CC(=O)N(O)CCCCCNC(=O)CCC(=O)N(O)CCCCCNC(=O)CCC(=O)N(O)CCCCCN [DFO, reference compound] | – | – | binding of IRP2 to Ferritin-L IRE [1]: slightly enhanced; displacement of iron from EDHB complex (iron chelation) [2]: readily displaced iron from EDHB; HIF-2a IRE luciferase reporter activity [3]: repressed reporter activity and diminished the effect of hypoxia |
| O=C(O)CN(CCN(CC(=O)O)CC(=O)O)CC(=O)O [EDTA, reference compound] | – | – | displacement of iron from EDHB complex (iron chelation) [2]: readily displaced iron from EDHB |
| Cc1ccc2nc(NCCN)c3ncc(C)n3c2c1 [BMS-345541, reference compound] | – | – | basal NFkB activity (NFkB): basal NFkB activity is suppressed; HRE-luciferase activity [4]: did not alter the HRE-luciferase activity |
